The results in this text go back to US20030100772A1, “Oxygen-containing heterocyclic compounds” (priority 2000, published 2003).

Data set [1] deals with T1, recombinant human PDE IV enzyme (HSPDE4A4B) (Homo sapiens, UniProt P27815).
T1 construct: made in house; host or cells: Sf9 insect cells
The experiment in a line: Inhibition test on recombinant human PDE IV enzyme. The note with it: [3H]cAMP 1 μmol/L substrate, read-out: enzyme inhibitory activity. It counts as biochemical. On the procedure: Inhibition Test on Recombinant Human PDE IV Enzyme
Human phosphodiesterase cDNA (HSPDE4A4B) was isolated from HL-60 cells. The expected amino acid sequence is the same as that (HSPDE4A5) reported by G. Bolger et al. [Mol. Cell Biol. 13, p. 6558 (1993)]. This recombinant protein was expressed in Sf9 insect cells. The PDE activity was determined by the following two step process according to the method by R. L. Kincaid and V. C. Manganiello [Method. Enzymol., 159, pp. 457-470 (1988)]. Using [^3H]cAMP (final concentration: 1 μmol/L) as a substrate, the reaction was conducted in a standard mixture containing N,N-bis(2-hydroxyethyl)-2-aminoethanesulfonic acid (50 mmol/L, pH 7.2), MgCl2 (1 mmol/L) and soybean trypsin inhibitor (0.1 mg/mL). The reaction was started by addition of the enzyme, and the incubation was conducted at 30° C. for 10 to 30 minutes. The reaction was terminated with hydrochloric acid, and the formed 5′-AMP was completely decomposed with […]. After chromatography with DEAE-Sephadex A-25, the eluted [^3H]-adenosine was counted by a scintillation counter. The test compounds were added after dissolved in DMSO (concentration: 1.7%).

Structures are written as SMILES. Where only a bound is given, the exact number is not on record here.

T1 sequence (P27815 whole entry): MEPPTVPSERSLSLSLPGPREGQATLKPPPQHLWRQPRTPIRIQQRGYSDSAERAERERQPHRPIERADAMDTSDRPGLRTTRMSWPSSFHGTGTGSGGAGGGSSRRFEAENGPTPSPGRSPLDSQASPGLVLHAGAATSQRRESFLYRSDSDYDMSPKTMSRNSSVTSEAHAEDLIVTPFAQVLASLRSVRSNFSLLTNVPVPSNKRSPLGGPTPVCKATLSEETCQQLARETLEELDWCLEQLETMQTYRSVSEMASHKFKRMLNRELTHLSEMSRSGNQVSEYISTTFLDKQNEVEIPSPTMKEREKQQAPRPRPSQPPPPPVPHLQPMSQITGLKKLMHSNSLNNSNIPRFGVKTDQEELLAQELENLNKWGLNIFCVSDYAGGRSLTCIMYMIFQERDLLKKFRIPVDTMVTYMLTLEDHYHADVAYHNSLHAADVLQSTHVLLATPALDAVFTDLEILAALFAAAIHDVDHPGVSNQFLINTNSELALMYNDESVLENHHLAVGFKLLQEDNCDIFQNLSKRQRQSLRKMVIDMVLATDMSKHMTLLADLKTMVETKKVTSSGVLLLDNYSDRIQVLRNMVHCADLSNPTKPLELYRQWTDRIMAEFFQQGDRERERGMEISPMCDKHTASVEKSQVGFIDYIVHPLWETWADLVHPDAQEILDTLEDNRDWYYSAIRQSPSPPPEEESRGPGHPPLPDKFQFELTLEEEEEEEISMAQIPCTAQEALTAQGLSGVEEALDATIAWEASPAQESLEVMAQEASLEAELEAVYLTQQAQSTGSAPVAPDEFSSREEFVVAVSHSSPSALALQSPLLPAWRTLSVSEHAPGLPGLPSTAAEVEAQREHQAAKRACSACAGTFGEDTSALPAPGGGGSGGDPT

Take `CCOC(=O)C=CC1(c2ccc(OC)c3c2OCCO3)CCC(=O)CC1` [Compound 13, Ethyl 3-[1-(8-methoxy-1,4-benzodioxan-5-yl)-4-oxocyclohexyl]acrylate]: the inhibition at 1 µM in data set [1] (concentration of 1 μmol/L) was not below 99%.

`COc1ccc(C2(C3CCCCC3=O)CCC(C(=O)O)CC2)c2c1OCCO2` (single isomer, unassigned) [Compound 9b, 4-(Cyclohexanon-2-yl)-4-(8-methoxy-1,4-benzodioxan-5-yl)-cyclohexanecarboxylic Acid] registered a melting point of 222 to 223 °C.

As to `COc1ccc(C2(C3CCCC3=O)CCC(C(=O)O)CC2)c2c1OCCO2` (centres unmarked) [Compound 8, 4-(Cyclopentanon-2-yl)-4-(8-methoxy-1,4-benzodioxan-5-yl)-cyclohexanecarboxylic Acid], the melting point was 241 to 243 °C. Also, the inhibition at 10 µM in data set [1] (drug concentration of 10 μmol/L) is not below 30%.

In turn, `COc1ccc(C2(C3CCCCC3=O)CCC(C(=O)O)CC2)c2c1OCCO2` (single isomer, unassigned) [Compound 9a, 4-(Cyclohexanon-2-yl)-4-(8-methoxy-1,4-benzodioxan-5-yl)-cyclohexanecarboxylic Acid] returned a melting point of 243 to 244 °C.

As a reminder, the melting point is the temperature of the solid-liquid transition.
